Measured values reported in PubChem BioAssay (NCI).
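Compound exposure: 48 hours, 5 concentrations, 96-well plates. GI50 = concentration required for 50% inhibition of growth. TGI: total growth inhibition.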

How the values were obtained:
Experiment in all cases: inhibition of tumour cell growth, NCI panel, 48 h
[1] = system: M14 melanoma
[2] = system: TK-10 renal
[3] = system: NCI-H226 lung
[4] = system: MDA-MB-231 breast
[5] = system: ACHN renal
[6] = system: MCF7 breast
[7] = system: SF-268 CNS
[8] = system: NCI-H522 lung
[9] = system: T-47D breast
[10] = system: HCT-116 colon
[11] = system: CCRF-CEM leukemia
[12] = system: RPMI-8226 leukemia
[13] = system: BT-549 breast
[14] = system: SN12C renal
[15] = system: HS 578T breast
[16] = system: SW-620 colon
[17] = system: PC-3 prostate
[18] = system: SNB-19 CNS
[19] = system: HT29 colon
[20] = system: HOP-92 NSCLC
[21] = system: OVCAR-4 ovarian
[22] = system: A549 NSCLC
[23] = system: SK-MEL-5 melanoma
[24] = system: OVCAR-8 ovarian
[25] = system: RXF 393 renal
[26] = system: U251 CNS
[27] = system: UACC-257 melanoma
[28] = system: KM12 colon
[29] = system: MALME-3M melanoma
[30] = system: SF-539 CNS
[31] = system: COLO 205 colon
[32] = system: HCT-15 colon
[33] = system: IGROV1 ovarian
[34] = system: HCC-2998 colon
[35] = system: HOP-62 NSCLC
[36] = system: SR leukemia
[37] = system: SNB-75 CNS
[38] = system: SK-OV-3 ovarian
[39] = system: UO-31 renal
[40] = system: UACC-62 melanoma
[41] = system: MDA-MB-435
[42] = system: CAKI-1 renal
[43] = system: HL-60(TB) leukemia
[44] = system: SF-295 CNS
[45] = system: SK-MEL-28 melanoma
[46] = system: OVCAR-3 ovarian
[47] = system: NCI-H460 lung
[48] = system: NCI-H23 lung
[49] = system: DU-145 prostate
[50] = system: NCI/ADR-RES ovarian
[51] = system: K-562 leukemia
[52] = system: SK-MEL-2 melanoma
[53] = system: 786-0 renal
[54] = system: LOX IMVI melanoma
[55] = system: OVCAR-5 ovarian
[56] = system: MOLT-4 leukemia
[57] = system: EKVX NSCLC
[58] = system: A498 renal

Compound C#C[C@]1(O)CC[C@H]2[C@@H]3CC=C4c5sc(Nc6cccc(Cl)n6)nc5CC[C@]4(C)[C@H]3CC[C@@]21C has a GI50 [1] of 491 nM, a TGI [1] of 1780 nM and a GI50 [2] of 1790 nM. It also gave a TGI [2] of 4060 nM, a GI50 [3] of 1600 nM and a TGI [3] of 4130 nM. The GI50 [4] was 1060 nM, the TGI [4] was 2690 nM and the GI50 [5] was 856 nM. The TGI [5] was 2930 nM, the GI50 [6] was 550 nM and the TGI [6] was 2400 nM. It also gave a GI50 [7] of 1540 nM, a TGI [7] of 4650 nM and a GI50 [8] of 1710 nM. It also gave a TGI [8] of 3610 nM, a GI50 [9] of 1840 nM and a TGI [9] of 5310 nM. For the same compound, the GI50 [10] was 565 nM, the TGI [10] was 1920 nM and the GI50 [11] was 430 nM. It also gave a TGI [11] greater than 21100 nM, a GI50 [12] of 208 nM and a TGI [12] of 618 nM. It also gave a GI50 [13] of 903 nM, a TGI [13] of 2360 nM and a GI50 [14] of 1600 nM. For the same compound, the TGI [14] was 3380 nM, the GI50 [15] was 338 nM and the TGI [15] was 1550 nM. It also gave a GI50 [16] of 1190 nM, a TGI [16] of 2570 nM and a GI50 [17] of 460 nM. For the same compound, the TGI [17] was 3110 nM, the GI50 [18] was 1170 nM and the TGI [18] was 2820 nM. For the same compound, the GI50 [19] was 1430 nM, the TGI [19] was 3600 nM and the GI50 [20] was 1200 nM. The TGI [20] was 2660 nM, the GI50 [21] was 2110 nM and the TGI [21] was 8600 nM. It also gave a GI50 [22] of 1200 nM, a TGI [22] of 3550 nM and a GI50 [23] of 1650 nM. It also gave a TGI [23] of 3120 nM, a GI50 [24] of 1460 nM and a TGI [24] of 3630 nM. The GI50 [25] was 122 nM, the TGI [25] was 349 nM and the GI50 [26] was 428 nM. The TGI [26] was 2050 nM, the GI50 [27] was 491 nM and the TGI [27] was 1820 nM. It also gave a GI50 [28] of 1250 nM, a TGI [28] of 3150 nM and a GI50 [29] of 1060 nM. For the same compound, the TGI [29] was 2620 nM, the GI50 [30] was 204 nM and the TGI [30] was 636 nM. For the same compound, the GI50 [31] was 1690 nM, the TGI [31] was 3400 nM and the GI50 [32] was 672 nM. It also gave a TGI [32] of 2440 nM, a GI50 [33] of 1610 nM and a TGI [33] of 4470 nM. The GI50 [34] was 1880 nM, the TGI [34] was 4100 nM and the GI50 [35] was 796 nM. It also gave a TGI [35] of 2230 nM, a GI50 [36] of 273 nM and a TGI [36] of 1020 nM. The GI50 [37] was 815 nM, the TGI [37] was 6540 nM and the GI50 [38] was 867 nM. The TGI [38] was 2710 nM, the GI50 [39] was 576 nM and the TGI [39] was 1870 nM. For the same compound, the GI50 [40] was 389 nM, the TGI [40] was 1500 nM and the GI50 [41] was 1010 nM. For the same compound, the TGI [41] was 2730 nM, the GI50 [42] was 819 nM and the TGI [42] was 2450 nM. The GI50 [43] was 335 nM, the TGI [43] was 1570 nM and the GI50 [44] was 205 nM. For the same compound, the TGI [44] was 529 nM, the GI50 [45] was 226 nM and the TGI [45] was 597 nM. It also gave a GI50 [46] of 1450 nM, a TGI [46] of 3130 nM and a GI50 [47] of 672 nM. The TGI [47] was 1930 nM, the GI50 [48] was 1610 nM and the TGI [48] was 4770 nM. It also gave a GI50 [49] of 2170 nM, a TGI [49] of 9200 nM and a GI50 [50] of 1820 nM. The TGI [50] was 5570 nM, the GI50 [51] was 327 nM and the TGI [51] was 1710 nM. The GI50 [52] was 1190 nM, the TGI [52] was 3340 nM and the GI50 [53] was 226 nM. For the same compound, the TGI [53] was 610 nM, the GI50 [54] was 705 nM and the TGI [54] was 1980 nM. The GI50 [55] was 1560 nM, the TGI [55] was 3350 nM and the GI50 [56] was 301 nM. The TGI [56] was 1170 nM, the GI50 [57] was 1290 nM and the TGI [57] was 6740 nM. For the same compound, the GI50 [58] was 897 nM and the TGI [58] was 2250 nM.
